In patent US10941114B2, “Small molecule lipid II inhibitors” (University Of Maryland, Baltimore, priority 2015, dated 2021):
≈ marks a conversion by molar mass, not a printed value. Where two headings read alike, the source gives them in different places.

What was measured:
[1] = Cytotoxicity testing (CC50, MTS assay); conditions: human
Staphylococcus aureus = experiment: Antibacterial activity assay (MIC, broth dilution); format: cell-based; conditions: for MIC: Staphylococcus aureus
Enterococcus faecium = experiment: Antibacterial activity assay (MIC, broth dilution); format: cell-based
Experimental: (§1) Determination of the Minimal Inhibitory Concentrations (MIC) by dilution was carried out by broth dilution according to CLSI standards. See CLSI, Methods for Dilution Antimicrobial Susceptibility Tests for Bacteria That Grow Aerobically; Approved Standard—Eighth Edition. 2009, the contents of which are hereby incorporated by reference. Briefly, the minimum inhibitory concentration MIC, is the lowest concentration of a compound that prevents visible growth of a bacterium, in other words at which it has bacteriostatic activity.
For these tests, cation-adjusted Mueller Hinton broth, containing 10% brain-heart infusion (BHI) was used. Concentrations (MIC) are given in μg/mL. The compound was […].
(§2) Compounds were tested for MIC by methods known in the art and described in CLSI, Methods for Dilution Antimicrobial Susceptibility Tests for Bacteria That Grow Aerobically; Approved Standard—Tenth Edition. CLSI document M07-A10. Wayne, Pa.: Clinical and Laboratory Standards Institute, 2015, which is hereby incorporated by reference for these methods.
(§3) Selected compounds also were tested by broth microdilution methods known in the art and described in CLSI, Methods for Dilution Antimicrobial Susceptibility Tests for Bacteria That Grow Aerobically; Approved Standard—Tenth Edition. CLSI document M07-A10. Wayne, Pa.: Clinical and Laboratory Standards Institute, 2015, which is hereby incorporated by reference. Structures of selected compounds in the tables are listed below.

Acinetobacter baumannii = experiment: Antibacterial activity assay (MIC, broth dilution); format: cell-based; conditions: for MIC: Acinetobacter baumannii
Experimental: as §1, §2, §3

[2] = Maximum Tolerated Dose (MTD) and in vivo toxicity at the MTD; conditions: dose-escalation; final MTD
[3] = Pharmacokinetic study in mice (plasma concentration by LC/MS/MS)
HeLa cells = experiment: Cytotoxicity testing (CC50, MTS assay); conditions: HeLa cells
[4] = Surface Plasmon Resonance determination of Lipid II binding; conditions: SPR; FIG. 16
Experimental: Short-chain water-soluble LII containing a lipid tail of three isoprene units (3-LII) was generated and purified essentially according to methods known in the art. See Breukink et al., Lipid II is an intrinsic component of the pore induced by nisin in bacterial membranes. J. Biol. Chem. 278(22):19898-19903, 2003, the contents of which are hereby incorporated by reference. Typically, M. flavus vesicles (120 μmol lipid-Pi) were incubated together with 500 μmol UDP-GlcNAc, 500 μmol UDP-MurNAC-pentapeptide and 400 μmol farnesyl phosphate in 100 mM Tris-HCl pH 8.0, 5 mM MgCl2. The incubation period was approximately two hours at room temperature for 3-LII (3-P). The synthesis of 3-Lipid II was followed by RP-8 reversed phase TLC (Merck™) developed with 75% methanol. For purification, the membranes were removed by centrifugation at 40,000×g; the supernatant was collected and loaded on a C18 HPLC column and eluted with a linear gradient from 50 mM ammonium bicarbonate to 100% methanol in 30 minutes. Farnesyl-Lipid II (3-Lipid II) eluted at approximately 60% methanol. Its identity was confirmed by mass spectroscopy.
Surface Plasmon Resonance binding experiments were carried out on a BIAcore T100 system (BIAcore™ Inc., Piscataway, N.Y.) at 25° C. The assay buffer was 10 mM HEPES, 150 mM NaCl, 0.05% surfactant P20, pH 7.4 (+3 mM EDTA) supplemented with 10% DMSO. 3-Lipid II (50 RUs) was immobilized on CMS sensor chips using the amine-coupling chemistry recommended by the manufacturer. For initial determination of binding, compounds were introduced into the flow-cells (30.mu·1/min) in the running buffer at 10 μM. Resonance signals were corrected for nonspecific binding by subtracting the background of the control flow-cell. Binding to immobilized 3-LII on the chip surface was determined and scored “yes” in Table 5 when more than 20 Resonance Units or RUs were detected. Detection of less than 20 RUs was scored as “no”, meaning no significant binding to LII. After each analysis, the sensor chip surfaces were regenerated with 50 mM NaOH for 30 seconds at a flow rate 100 μL/min, and equilibrated with the buffer prior to next injection. For binding kinetics studies, binding isotherms were analyzed with manufacturer-supplied software for BIAcore™ T100.

[5] = mouse, in vivo, iv, 10 mg/kg
Enterococcus faecalis = experiment: Antibacterial activity assay (MIC, broth dilution); format: cell-based
Streptococcus pneumoniae = experiment: Antibacterial activity assay (MIC, broth dilution); format: cell-based
Pseudomonas aeruginosa = experiment: Antibacterial activity assay (MIC, broth dilution); format: cell-based; conditions: MMX#-ATCC# 103-27853
Escherichia coli = experiment: Antibacterial activity assay (MIC, broth dilution); format: cell-based; conditions: MMX#-ATCC# 102.25922
[6] = Liver microsome stability testing; format: in vitro ADME; conditions: positive control; human liver microsomes
Experimental: The in vitro microsome stability assay was performed using human liver microsomes and a Biomek FXP™ liquid handling workstation to deliver reagents to a deep 96-well plate on a shaking peltier with temperature controls. Human liver microsomes were purchased from Corning™. The test compound was incubated in an aqueous reaction mixture (200 μL total volume) consisting of human liver microsomes (150 mixed donor pool) and NADPH Regenerating System Solutions A and B (Corning™) in the presence of 100 mM potassium phosphate buffer (pH 7.4). NADPH Regenerating System Solution A comprises nicotinamide adenine dinucleotide phosphate (NADP+) and glucose 6-phosphate; NADPH Regenerating System Solution B contains glucose-6-phosphate dehydrogenase. Solutions A and B were combined prior to adding to the reaction plate to generate a supply of NADPH. The NADPH was added last to initiate the reactions simultaneously. The final concentration of the test compound was 10 μM and the microsomal protein concentration was 0.5 mg/mL. […]
The half-life (t½) was calculated using the following equation:
[formula] where “slope” is the slope of the line formed by ln(% remaining test compound) vs. time. The in vitro intrinsic clearance (CLint) was calculated using equation: […]

[7] = S. aureus USA300 (MRSA), average of two replicates, read-out: MIC SA
[8] = Table 16, CLSI M07-A10 dilution method, read-out: MIC S. aureus
[9] = ATCC 1509 / VRE, text: E. faecium EF1509 (VRE), footnote: Enterococcus faecalis ATCC 1509, average of two replicates, read-out: MIC EF
[10] = Enterococcus faecium, Table 16, CLSI M07-A10 dilution method, read-out: MIC E. faecium
[11] = A. baumannii 2-2-2 (colistin-resistant clinical isolate), average of two replicates, read-out: MIC AB
[12] = Table 16, CLSI M07-A10 dilution method, read-out: MIC A. baumannii
[13] = single dose of 10 mg/kg by intravenous injection in CD1 mice (n=3)
[14] = S. aureus USA300 (MRSA), average of two replicates
[15] = E. faecium EF1509 (VRE), average of two replicates
[16] = A. baumannii 2-2-2 (colistin-resistant clinical isolate), average of two replicates
[17] = single dose of 10 mg/kg by intravenous injection
[18] = text: E. faecium EF1509 (VRE), footnote: Enterococcus faecalis ATCC 1509, average of two replicates

Row | SMILES | MIC (Staphylococcus aureus; [7]) [µg/mL] | MIC (Staphylococcus aureus; [8]) [µg/mL] | MIC (Enterococcus faecium; [9]) [µg/mL] | MIC (Enterococcus faecium; [10]) [µg/mL] | MIC (Acinetobacter baumannii; [11]) [µg/mL] | MIC (Acinetobacter baumannii; [12]) [µg/mL] | Lipid II binding affinity [4] | MIC SA (Staphylococcus aureus; [14]) [µg/mL] | AUCInf [5] [ng·h/mL] | Cl—obs [5] [mL/min/kg] | MRT [5] [h] | T1/2 [5] [h] | MIC AB (Acinetobacter baumannii; [16]) [µg/mL] | AUCextrap [3, 17] [%] | AUClast/D [3, 17] [ng·h/mL] | other results
1 | Cc1ccc(-c2cc(-c3ccc(Cl)cc3)cc(/C=C/c3ccc(N(C)CCO)cc3)[n+]2C)cc1.[I-] [Compound 9p, (E)-4-(4-chlorophenyl)-2-(4-((2-hydroxyethyl)(methyl)amino)styryl)-1-methyl-6-(p-tolyl)pyridin-1-ium iodide] | 0.25 | 0.25 | 2 | 2 | 16 | 16 |  |  |  |  |  |  |  |  |  | CC50 at 24 h ([1]; HeLa cells): 5.5 µg/mL
2 | Cc1ccc(-c2cc(-c3ccc(Br)cc3)cc(/C=C/c3ccc(N(C)C)cc3)[n+]2C)c(C)c1.[I-] [Compound 9s, (E)-4-(4-bromophenyl)-2-(4-(dimethylamino)styryl)-6-(2,4-dimethylphenyl)-1-methylpyridin-1-ium iodide] | 0.25 | 0.25 | 1 | 1 | 16 | 16 |  |  |  |  |  |  |  |  |  | CC50 at 24 h [1]: 3.5 µg/mL
3 | CCN(CC)c1ccc(/C=C/c2cc(-c3ccc(Br)cc3)cc(-c3ccc(C)c(C)c3)[n+]2C)cc1.[I-] [Compound 9v, (E)-4-(4-bromophenyl)-2-(4-(diethylamino)styryl)-6-(3,4-dimethylphenyl)-1-methylpyridin-1-ium iodide] | 2 | 2 | 4 | 4 | 4 | 4 |  |  |  |  |  |  |  |  |  | CC50 at 24 h ([1]; HeLa cells): 5.5 µg/mL
4 | CN(CCC#N)c1ccc(/C=C/c2cc(-c3ccc(Br)cc3)cc(-c3ccc(Br)cc3)[n+]2C)cc1.[I-] [Compound 12c] |  |  |  |  |  |  |  |  |  |  |  |  |  |  |  | Maximum Tolerated Dose (MTD) [2]: 40 mg/kg; AUCInf [3, 13]: 2137 ± 455 ng·h/mL; AUCextrap [3, 13]: 12.9 ± 5.6%; Cl3 [3, 13]: 80.3 ± 16.6 mL/min/kg; Cmax [3, 13]: 3975 ± 739 ng/mL; MRT [3, 13]: 9.13 ± 3.17 h; T1/2 [3, 13]: 11 ± 2.37 h; Vss—obs [3, 13]: 46.3 ± 23.3 L/kg
5 | CC(C)C[n+]1c(/C=C/c2ccc(N(C)C)cc2)cc(-c2ccc(Br)cc2)cc1-c1ccc(Br)cc1.[I-] [EL-1] |  |  |  |  |  |  | below micromolar | 0.5 | 1528 ± 286 | 111 ± 20 | 4.42 ± 0.72 | 8.33 ± 0.84 | 4 |  |  | Maximum Tolerated Dose (MTD) [2]: 25 mg/kg; CC50 (HeLa cells; exposure 24 hour): 5 µg/mL; AUCextrap [5]: 5.15 ± 1.28%; Cl3 [5]: 111 ± 20 mL/min/kg; MIC EF (Enterococcus faecium; [15]): 1 µg/mL
6 | CN(C)c1ccc(/C=C/c2cc(-c3ccc(Br)cc3)cc(-c3ccc(Br)cc3)[n+]2C2CCCCC2)cc1.[I-] [EL-5] |  |  |  |  |  |  | below micromolar | 1 | 4125 ± 780 | 41.29 ± 7 | 18.8 ± 1.62 | 23.8 ± 0.84 | 0.5 | 27.2 ± 1.6 | 300 ± 58 | CC50 (HeLa cells; exposure 24 hour): 4 µg/mL; MIC EF (Enterococcus faecium; [15]): 0.25 µg/mL
7 | Cc1ccc(-c2cc(-c3ccc(Br)cc3)cc(/C=C/c3ccc(N(C)C)cc3)[n+]2C)cc1.[I-] [EL-8] |  |  |  |  |  |  | below micromolar | 0.5 | 764 ± 187 |  | 1.74 ± 0.49 | 9.4 ± 1.01 | 4 | 4.63 ± 0.51 | 72.9 ± 17.9 | CC50 (HeLa cells; exposure 24 hours): 12 µg/mL; AUClast/D [5]: 729 ± 179 mg·h/mL; MIC EF (Enterococcus faecium; [18]): 4 µg/mL
8 | Cc1ccc(/C=C/c2cc(-c3ccc(Br)cc3)cc(-c3ccc(Br)cc3)[n+]2C)cc1.[I-] [EL-11] |  |  |  |  |  |  | below micromolar | 1 | 2137 ± 455 | 80.3 ± 16.6 | 9.13 ± 3.17 | 11 ± 2.37 | >64 | 12.9 ± 5.6 | 185.3 ± 37.3 | CC50 (HeLa cells; exposure 24 hours): 5 µg/mL; AUClast/D [5]: 1853 ± 372 mg·h/mL; MIC EF (Enterococcus faecium; [18]): 4 µg/mL
9 | CC(=O)NC[C@H]1CN(c2ccc(N3CCOCC3)c(F)c2)C(=O)O1 [Linezolid, linezolid, reference compound] |  |  |  |  |  |  |  |  |  |  |  |  |  |  |  | MIC Enterococcus faecalis (Enterococcus faecalis; MMX#-ATCC# 101-29212): 2 µg/mL (≈ 5.93 µM); MIC Enterococcus faecalis (VRE) (Enterococcus faecalis; MMX#-ATCC# 848-NA, vancomycin-resistant): 2 µg/mL (≈ 5.93 µM); MIC Streptococcus pneumoniae (PRSP) (Streptococcus pneumoniae; MMX#-ATCC# 884-NA, penicillin-resistant): 2 µg/mL (≈ 5.93 µM); MIC Streptococcus pneumoniae (Streptococcus pneumoniae; MMX#-ATCC# 1195-49619): 2 µg/mL (≈ 5.93 µM); MIC Staphylococcus aureus (Staphylococcus aureus; MMX#-ATCC# 100-29213): 4 µg/mL (≈ 11.9 µM); MIC Staphylococcus aureus (MRSA) (Staphylococcus aureus; MMX#-ATCC# 757-NA, methicillin-resistant): 4 µg/mL (≈ 11.9 µM); MIC Pseudomonas aeruginosa (Pseudomonas aeruginosa): > 64 µg/mL; MIC Escherichia coli (Escherichia coli): > 64 µg/mL
10 | COc1ccc2c(c1)[C@]13CCCC[C@@H]1[C@H](C2)N(C)CC3 [dextromethorphan] |  |  |  |  |  |  |  |  |  |  |  |  |  |  |  | intrinsic clearance [6]: 31 µL/min/mg
